Data on one compound can be found in US20070270350A1, “Methods and Compositions for the Prevention and Treatment of Inflammatory Diseases or Conditions” (MUSC FOUNDATION FOR RESEARCH DEVELOPMENT, priority 2003, published 2007).

Structures are written as SMILES.

For data set [1], the target named is T1, lactosylceramide synthase (GalT-2) (Rattus norvegicus, UniProt O88419).
T1 construct: endogenous in cells; host or cells: primary astrocytes
T1 sequence (O88419 1-382): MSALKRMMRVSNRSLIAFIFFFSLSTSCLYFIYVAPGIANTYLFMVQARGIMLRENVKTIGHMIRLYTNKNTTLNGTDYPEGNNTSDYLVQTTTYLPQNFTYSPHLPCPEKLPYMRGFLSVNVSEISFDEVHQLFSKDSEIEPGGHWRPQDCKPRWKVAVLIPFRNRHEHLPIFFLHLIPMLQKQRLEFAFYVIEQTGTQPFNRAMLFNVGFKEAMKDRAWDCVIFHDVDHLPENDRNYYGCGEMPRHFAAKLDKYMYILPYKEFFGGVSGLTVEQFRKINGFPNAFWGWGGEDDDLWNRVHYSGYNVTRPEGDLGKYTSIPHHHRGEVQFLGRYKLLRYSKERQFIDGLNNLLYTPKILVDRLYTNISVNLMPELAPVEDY
The data set is described as follows: Measurement of lactosylceramide synthesis in primary astrocytes. It is filed as cell-based. The note with it: D-PDMP pretreatment 0.5 hr; 14C-galactose labelling, HPTLC. The method, then: Measurement of lactosylceramide synthesis. Cultured cells were incubated in growth medium containing [^14C] galactose (5 ? Ci/ml) for 24 h as described previously. The medium was removed, and the cell monolayer was washed with sterile PBS to remove nonspecifically adsorbed radioactivity and fresh serum free medium was added. After the stimulation of cells with LPS/IFN ? (1 ? g/ml; 10 U/ml) for various durations cells were then harvested and washed with ice cold PBS and lysed by sonication. Following protein quantification, […] of protein was used for extraction of lipids using Chloroform:Methanol:HCl (100:100:1). The organic phase was dried under nitrogen. Glycosphingolipids were resolved by high performance thin layer chromatography using chloroform/methanol/0.25% KCl (70:30:4, v/v/v) as the developing solvent. The chromatographic plate was dried in air and stained with iodine vapors. The gel area corresponding to LacCer was scraped, and radioactivity was measured employing “liquiscint” (NEN Life Science Products) as a scintillating fluid.

The conditions of data set [2]: cited from earlier work.
Another data set relates to NF-κB. The data set is described as follows: NF-κB reporter, gel shift and IκB phosphorylation after LPS/IFN. Type of data set: cell-based, rat. The method, then: Western Blot Analysis. For iNOS protein, the cells were washed with cold Tris buffered saline (TBS; 20 mM Trizma base, and 137 mM NaCl, pH 7.5), lysed in 1×SDS sample loading buffer (62.5 mM Trizma base, 2% w/v SDS, 10% glycerol), following sonication and centrifugation at 1,5000×g for 5 min, the supernatant was used for the iNOS western immunoblot assay. The protein concentration of samples was determined with the detergent compatible protein assay reagent (Bio-Rad Laboratories, CA) using bovine serum albumin (BSA) as the standard. Sample was boiled for 3 min with 0.1 volumes of 10% O-mercaptoethanol and 0.5% bromophenol blue mix. Fifty μg of total cellular protein was resolved by electrophoresis in 8 or 12% polyacrylamide gels, electro-transferred to polyvinylidene difluoride (PVDF) filter and blocked with Tween 20 containing Tris-buffered saline [TBST; 10 mM Trizma base (pH 7.4), 1% Tween 20, and 150 mM NaCl] with 5% skim milk. After incubation with antiserum against iNOS (BD PharMingen, CA), or hRas (Upstate Biotechnology, CA), or phospho-specific MAPK (p42/44) (Signal Transduction), in PVDF buffer for 2 h at room temperature, the filters were washed 3 times with TBST buffer and then incubated with horseradish peroxidase conjugated anti-rabbit or mouse IgG for 1 h. The membranes were autoradiographed by using ECL-plus (Amersham Pharmacia Biotech) after washing with TBST buffer.
Nuclear Extraction and Electrophoretic mobility shift assay. Nuclear extracts from cells (1×10^7 cells) were prepared using previously published method (Dignam et al., 1983) with slight modification. Cells were harvested, washed twice with ice-cold TBS, and lysed in 400 μl of buffer A containing, 10 mM KCl, 2 mM MgCl2, 0.5 mM dithiothreitol, protease inhibitor cocktail (Sigma), and 0.1% Nonidet P40 in 10 mM HEPES, pH 7.9 for 10 min on ice. Following centrifugation at 5,000×g for 10 min, the pelleted nuclei were washed with buffer A without Nonidet P40, and re-suspended in 40 μl of buffer B containing 25% (v/v) glycerol, 0.42 M NaCl, 1.5 mM MgCl2, 0.2 mM EDTA, 0.5 mM dithiothreitol, and Complete™ protease inhibitor cocktail (Roche) in 20 mM HEPES, pH7.9 for 30 min on ice. The lysates were centrifuged at 15,000×g for 15 min and the supernatants containing the nuclear proteins were stored at −70° C. until use. Ten μg of nuclear proteins was used for the electrophoretic mobility shift assay for detection of AP-1, NFκB, and C/EBP DNA binding activities. DNA-protein binding reactions were carried out at room temperature for 20 min in 10 mM Trizma base (pH 7.9), 50 mM NaCl, 5 mM MgCl2, 1 mM EDTA, 1 mM dithiothreitol, 1 μg poly (dl-dC), 5% (v/v) glycerol, and approximately 0.3 pmol of NFκB (Santa Cruz Biotech) labeled with DIG-ddUTP using terminal deoxynucleotidyl transferase (Roche). Protein-DNA complexes were resolved from protein-free DNA in 5% polyacrylamide gels at room temperature in 50 mM Tris, pH 8.3, 0.38 M glycine, and 2 mM EDTA, and electroblotted onto positively charged nylon membranes. The chemiluminescence detection method for DIG-labeled probes is identical to the method described for the non-isotopic northern blot analysis in the preceding.
Transient Transfections and Reporter Gene Assay. 3×10^5 cells/well were cultured in 6-well plates for one day before the transfection. Transfection was performed with plasmid concentration constant (2.5 μg/transfection) and 8 μl of Fugene transfection reagent (Roche Molecular Biochemicals). One day after transfection, the cells were placed in serum free media for overnight. Following appropriate treatment, the cells were washed with phosphate buffered saline (PBS), scrapped, and then resuspended with 100 μl of lysis buffer (40 mM of Tricine pH 7.8, 50 mM of NaCl, 2 mM of EDTA, 1 mM of MgSO4, 5 mM of dithiothreitol, and 1% of Triton X-100). After incubation in room temperature for 15 min with occasional vortexing, the samples were centrifuged. […]

For the compound `CCCCCCCCCC(=O)NC(CN1CCOCC1)C(O)c1ccccc1.Cl` [D-PDMP, D-threo-1-Phenyl-2-decanoylamino-3-morpholino-1-propanol HCl], the “increase in LacCer biosynthesis following LPS/IFN stimulation” value in data set [1] is listed as “inhibited this increase”. Besides, the solubility in water result in data set [2] is recorded as “soluble”. Also, the “LPS/IFN induced luciferase activity (κB-repeat luciferase)” value with NF-κB (D-PDMP 0.5 hr before LPS/IFN) is reported as “abolished”. Moreover, in the data set on NF-κB (in the presence of D-PDMP), the “phosphorylation of IκB” value is recorded as “Decreased”. In the data set with NF-κB (increasing doses of D-PDMP, LPS/IFN 45 minutes), the “NF-κB DNA binding activity (electrophoresis mobility shift assay)” value is listed as “inhibited”.
